Laboratory results: ChEMBL document CHEMBL1126537, “Synthesis and biological activity of sulfoximine-modified myristic acid analogues” (Bioorg Med Chem Lett, 1993)

Assays:
[1] = test system: Moloney murine leukemia virus; test: Compound was tested for its antagonistic activity against Moloney leukemia virus (MoLV) replication; type: functional, organism-based
Mus musculus = species: Mus musculus; test: Percentage control against LPS stimulated IL-1-alpha formation in murine peritoneal macrophages was measured by IL-1-alpha ELISA; type: functional; set-up: concentration or dose not given beside the values

Row | Structure (SMILES) | IC50 [1] [µM] | Control (Mus musculus) [%]
1 | C/C=C/C/C=C/CCC(=O)[C@H]1O[C@H]1C(N)=O [CERULENIN] | 2.7 | 170
2 | CCCCCCCCCCCCC[S+](=N)([O-])Cc1ccccc1 (stereo not given) | 15 | 326
3 | CCCCCCCCCCCCC[S+](=N)([O-])CC(=O)OCC (stereo not given) | 24 | 190

More lines, in order of falling IC50 [1], values ahead:

Row | IC50 [1] [µM] | Structure (SMILES) | Control (Mus musculus) [%]
4 | 10 | CCCCCCCCCCCCC[S+](=N)([O-])CCC (stereo not given) | 206
5 | 5 | CCCCCCCCCCCCC[S+](C)(=N)[O-] (stereo not given) | 123
